Test results as given in patent US8927549B2, “Adamantyl benzamide derivatives” (High Point Pharmaceuticals, LLC, priority 2008, dated 2015).

Target: T1, 11β-HSD (Homo sapiens, UniProt P28845)
T1 construct: from tissue
Assay: in vitro 11β-HSD Assay (human microsomes, CISBIO Cortisol kit)
Type: biochemical
Conditions: 160 nM cortisone, 200 μM NADPH, 2 h at 37° C.
Protocol: Protocol for in vitro 11β-HSD Assay
CISBIO Cortisol kit #62CO2PEB
Assay Buffer: (water based) used for Enzyme, Compounds and Microsomes: 20 mM Tris, 5 mM EDTA, and pH 6.0.
Enzyme Buffer: 333 μM NADPH (FAC 200 μM) and 266 nM Cortisone (FAC 160 nM).
1) Test compounds (10 mM stock in 100% DMSO) were diluted in Assay Buffer (see below) with 1% DMSO FAC and placed into the 96-well plate. Test compounds were typically tested over 10 concentrations (30 μM-0.3 nM).
2) 30 μL Enzyme Buffer, 10 μL Test Compound, 10 μL human microsomes were added to the test compounds and mixed gently by tapping the plate.
3) The plates were incubated for 2 h at 37° C.
4) 25 μL anti Cortisol-K and 25 μL Cortisol d2 were added to the plate and mixed gently by tapping the plate.
5) The plates were incubated at room temperature for 2 h.
6) The plates were read on an Envision model 2120 Perkin-Elmer using emission filters #205 and #217.

T1 sequence (P28845 whole entry): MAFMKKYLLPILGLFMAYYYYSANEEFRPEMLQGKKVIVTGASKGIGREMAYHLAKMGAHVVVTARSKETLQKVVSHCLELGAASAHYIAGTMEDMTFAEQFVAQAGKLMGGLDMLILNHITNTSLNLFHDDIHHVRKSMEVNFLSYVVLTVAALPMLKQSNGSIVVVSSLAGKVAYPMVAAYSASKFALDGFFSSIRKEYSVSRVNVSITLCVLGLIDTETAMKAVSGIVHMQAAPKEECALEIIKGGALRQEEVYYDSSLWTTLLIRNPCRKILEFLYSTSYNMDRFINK

Row | SMILES | EC50
1 | O=C(NC1C2CC3CC1CC(O)(C3)C2)c1cccc(S(=O)(=O)c2ccc(Cl)cn2)c1 (stereo not drawn) [Example 5, 3-(5-Chloro-pyridine-2-sulfonyl)-N-[(E)-5-hydroxy-adamantan-2-yl]-benzamide] | < 3000 nM
2 | O=C(NC1C2CC3CC1CC(O)(C3)C2)c1cccc([S+]([O-])c2ccc(Cl)cn2)c1 (stereo not drawn) [Example 4, 3-(5-Chloro-pyridine-2-sulfinyl)-N-[(E)-5-hydroxy-adamantan-2-yl]-benzamide] | < 500 nM
3 | Cc1cc(C)nc(Nc2cccc(C(=O)NC3C4CC5CC3CC(O)(C5)C4)c2)n1 (stereo not drawn) [Example 9, 3-(4,6-Dimethyl-pyrimidin-2-ylamino)-N-[(E)-5-hydroxy-adamantan-2-yl]-benzamide] | < 500 nM
4 | O=C(NC1C2CC3CC1CC(O)(C3)C2)c1cccc(Oc2ncc(Cl)cc2Cl)c1 (stereo not drawn) [Example 7, 3-(3,5-Dichloro-pyridin-2-yloxy)-N-[(E)-5-hydroxy-adamantan-2-yl]-benzamide] | < 200 nM
5 | O=C(NC1C2CC3CC1CC(O)(C3)C2)c1cccc(Oc2ccc(C(F)(F)F)cn2)c1 (stereo not drawn) [Example 2, N-[(E)-5-Hydroxy-adamantan-2-yl]-3-(5-trifluoromethyl-pyridin-2-yloxy)-benzamide] | < 200 nM

Results, then the compound that gave them:

Row | EC50 | SMILES
6 | < 200 nM | O=C(NC1C2CC3CC1CC(O)(C3)C2)c1cccc(Nc2ccc(Cl)cn2)c1 (stereo not drawn) [Example 8, 3-(5-Chloro-pyridin-2-ylamino)-N-[(E)-5-hydroxy-adamantan-2-yl]-benzamide]
7 | < 200 nM | O=C(NC1C2CC3CC1CC(O)(C3)C2)c1cccc(Oc2ccc(Cl)nn2)c1 (stereo not drawn) [Example 6, 3-(6-Chloro-pyridazin-3-yloxy)-N-[(E)-5-hydroxy-adamantan-2-yl]-benzamide]
8 | < 200 nM | O=C(NC1C2CC3CC1CC(O)(C3)C2)c1cccc(Oc2ccc(Cl)cn2)c1 (stereo not drawn) [Example 1, 3-(5-Chloro-pyridin-2-yloxy)-N-[(E)-5-hydroxy-adamantan-2-yl]-benzamide]
9 | < 200 nM | O=C(NC1C2CC3CC1CC(O)(C3)C2)c1cccc(Sc2ccc(Cl)cn2)c1 (stereo not drawn) [Example 3, 3-(5-Chloro-pyridin-2-ylsulfanyl)-N-[(E)-5-hydroxy-adamantan-2-yl]-benzamide]
